Laboratory results: ChEMBL document CHEMBL4229547, “Design, synthesis and biological mechanisms research on 1,2,3-triazole derivatives of Jiyuan Oridonin A” (Bioorg Med Chem, 2018)

tested on: EC9706; experiment: Antiproliferative activity against human EC9706 cells after 48 hrs by MTT assay; assay type: functional, cell-based; settings: EC9706, 48 h

| Compound | IC50 [µM] |
| --- | --- |
| C=C1C(=O)[C@]23[C@H](O)[C@H]1C[C@H](O)[C@H]2[C@]12CCCC(C)(C)[C@H]1C[C@H]3O[C@@H]2OCCc1cn(Cc2ccc(OC)cc2)nn1 | 4.67 |
| C=C1C(=O)[C@]23[C@H](O)[C@H]1C[C@H](O)[C@H]2[C@]12CCCC(C)(C)[C@H]1C[C@H]3OC2OCCN=[N+]=[N-] (single isomer, unassigned) | 8.71 |
| C=C1C(=O)[C@]23[C@H](O)[C@H]1C[C@H](O)[C@H]2[C@]12CCCC(C)(C)[C@H]1C[C@H]3O[C@@H]2OCCc1cn(Cc2ccc([N+](=O)[O-])cc2)nn1 | 7.78 |
| C=C1C(=O)[C@]23[C@H](O)[C@H]1C[C@H](O)[C@H]2[C@]12CCCC(C)(C)[C@H]1C[C@H]3O[C@@H]2OCCc1cn(Cc2ccc(F)cc2)nn1 | 4.5 |
| C=C1C(=O)[C@]23[C@H](O)[C@H]1C[C@H](O)[C@H]2[C@]12CCCC(C)(C)[C@H]1C[C@H]3O[C@@H]2OCCn1cc(CCCC)nn1 | 8.29 |
| C=C1C(=O)[C@]23[C@H](O)[C@H]1C[C@H](O)[C@H]2[C@]12CCCC(C)(C)[C@H]1C[C@H]3O[C@H]2O | 22.5 |
| C=C1C(=O)[C@]23[C@H](O)[C@H]1CC[C@H]2[C@@]12CO[C@]3(O)[C@@H](O)[C@@H]1C(C)(C)CC[C@@H]2O [ORIDONIN] | 38.4 |

tested on: PC-3; experiment: Antiproliferative activity against human PC3 cells after 48 hrs by MTT assay; assay type: functional, cell-based; settings: PC-3, 48 h

| IC50 [µM] | Compound |
| --- | --- |
| 4.95 | C=C1C(=O)[C@]23[C@H](O)[C@H]1C[C@H](O)[C@H]2[C@]12CCCC(C)(C)[C@H]1C[C@H]3O[C@@H]2OCCc1cn(Cc2ccc(OC)cc2)nn1 |
| 12.3 | C=C1C(=O)[C@]23[C@H](O)[C@H]1C[C@H](O)[C@H]2[C@]12CCCC(C)(C)[C@H]1C[C@H]3OC2OCCN=[N+]=[N-] (single isomer, unassigned) |
| 15 | C=C1C(=O)[C@]23[C@H](O)[C@H]1C[C@H](O)[C@H]2[C@]12CCCC(C)(C)[C@H]1C[C@H]3O[C@H]2O |
| 27.6 | C=C1C(=O)[C@]23[C@H](O)[C@H]1CC[C@H]2[C@@]12CO[C@]3(O)[C@@H](O)[C@@H]1C(C)(C)CC[C@@H]2O [ORIDONIN] |

tested on: SMMC-7721; experiment: Antiproliferative activity against human SMMC7721 cells after 48 hrs by MTT assay; assay type: functional, cell-based; settings: SMMC-7721, 48 h

| IC50 [µM] | Compound |
| --- | --- |
| 4.81 | C=C1C(=O)[C@]23[C@H](O)[C@H]1C[C@H](O)[C@H]2[C@]12CCCC(C)(C)[C@H]1C[C@H]3O[C@@H]2OCCc1cn(Cc2ccc(OC)cc2)nn1 |
| 3.8 | C=C1C(=O)[C@]23[C@H](O)[C@H]1C[C@H](O)[C@H]2[C@]12CCCC(C)(C)[C@H]1C[C@H]3O[C@@H]2OCCc1cn(Cc2ccc([N+](=O)[O-])cc2)nn1 |
| 5.88 | C=C1C(=O)[C@]23[C@H](O)[C@H]1C[C@H](O)[C@H]2[C@]12CCCC(C)(C)[C@H]1C[C@H]3O[C@@H]2OCCc1cn(Cc2ccc(F)cc2)nn1 |
| 11 | C=C1C(=O)[C@]23[C@H](O)[C@H]1C[C@H](O)[C@H]2[C@]12CCCC(C)(C)[C@H]1C[C@H]3O[C@@H]2OCCn1cc(CCCC)nn1 |

The next lines start with the molecule.

| Compound | IC50 [µM] |
| --- | --- |
| C=C1C(=O)[C@]23[C@H](O)[C@H]1C[C@H](O)[C@H]2[C@]12CCCC(C)(C)[C@H]1C[C@H]3OC2OCCN=[N+]=[N-] (single isomer, unassigned) | 10 |
| C=C1C(=O)[C@]23[C@H](O)[C@H]1C[C@H](O)[C@H]2[C@]12CCCC(C)(C)[C@H]1C[C@H]3O[C@H]2O | 20.2 |
| C=C1C(=O)[C@]23[C@H](O)[C@H]1CC[C@H]2[C@@]12CO[C@]3(O)[C@@H](O)[C@@H]1C(C)(C)CC[C@@H]2O [ORIDONIN] | 54 |

tested on: MCF7; experiment: Antiproliferative activity against human MCF7 cells after 48 hrs by MTT assay; assay type: functional, cell-based; settings: MCF7, 48 h

| IC50 [µM] | Compound |
| --- | --- |
| 7.81 | C=C1C(=O)[C@]23[C@H](O)[C@H]1C[C@H](O)[C@H]2[C@]12CCCC(C)(C)[C@H]1C[C@H]3O[C@@H]2OCCc1cn(Cc2ccc(OC)cc2)nn1 |
| 6.45 | C=C1C(=O)[C@]23[C@H](O)[C@H]1C[C@H](O)[C@H]2[C@]12CCCC(C)(C)[C@H]1C[C@H]3O[C@@H]2OCCc1cn(Cc2ccc([N+](=O)[O-])cc2)nn1 |
| 6.62 | C=C1C(=O)[C@]23[C@H](O)[C@H]1C[C@H](O)[C@H]2[C@]12CCCC(C)(C)[C@H]1C[C@H]3O[C@@H]2OCCc1cn(Cc2ccc(F)cc2)nn1 |
| 13.4 | C=C1C(=O)[C@]23[C@H](O)[C@H]1C[C@H](O)[C@H]2[C@]12CCCC(C)(C)[C@H]1C[C@H]3O[C@@H]2OCCn1cc(CCCC)nn1 |

The remaining lines, values behind:

| Compound | IC50 [µM] |
| --- | --- |
| C=C1C(=O)[C@]23[C@H](O)[C@H]1C[C@H](O)[C@H]2[C@]12CCCC(C)(C)[C@H]1C[C@H]3OC2OCCN=[N+]=[N-] (single isomer, unassigned) | 1.6 |
| C=C1C(=O)[C@]23[C@H](O)[C@H]1C[C@H](O)[C@H]2[C@]12CCCC(C)(C)[C@H]1C[C@H]3O[C@H]2O | 22.9 |
| C=C1C(=O)[C@]23[C@H](O)[C@H]1CC[C@H]2[C@@]12CO[C@]3(O)[C@@H](O)[C@@H]1C(C)(C)CC[C@@H]2O [ORIDONIN] | 74.2 |

tested on: ECa-109 cell line; experiment: Antiproliferative activity against human ECA109 cells after 48 hrs by MTT assay; assay type: functional, cell-based; settings: ECa-109, 48 h

| Compound | IC50 [µM] |
| --- | --- |
| C=C1C(=O)[C@]23[C@H](O)[C@H]1C[C@H](O)[C@H]2[C@]12CCCC(C)(C)[C@H]1C[C@H]3O[C@@H]2OCCc1cn(Cc2ccc(OC)cc2)nn1 | 2.57 |
| C=C1C(=O)[C@]23[C@H](O)[C@H]1C[C@H](O)[C@H]2[C@]12CCCC(C)(C)[C@H]1C[C@H]3OC2OCCN=[N+]=[N-] (single isomer, unassigned) | 6.08 |
| C=C1C(=O)[C@]23[C@H](O)[C@H]1C[C@H](O)[C@H]2[C@]12CCCC(C)(C)[C@H]1C[C@H]3O[C@@H]2OCCc1cn(Cc2ccc([N+](=O)[O-])cc2)nn1 | 4.13 |
| C=C1C(=O)[C@]23[C@H](O)[C@H]1C[C@H](O)[C@H]2[C@]12CCCC(C)(C)[C@H]1C[C@H]3O[C@@H]2OCCc1cn(Cc2ccc(F)cc2)nn1 | 3.68 |
| C=C1C(=O)[C@]23[C@H](O)[C@H]1C[C@H](O)[C@H]2[C@]12CCCC(C)(C)[C@H]1C[C@H]3O[C@@H]2OCCn1cc(CCCC)nn1 | 4.45 |
| C=C1C(=O)[C@]23[C@H](O)[C@H]1C[C@H](O)[C@H]2[C@]12CCCC(C)(C)[C@H]1C[C@H]3O[C@H]2O | 20.7 |
| C=C1C(=O)[C@]23[C@H](O)[C@H]1CC[C@H]2[C@@]12CO[C@]3(O)[C@@H](O)[C@@H]1C(C)(C)CC[C@@H]2O [ORIDONIN] | 31.8 |

tested on: HGC-27; experiment: Antiproliferative activity against human HGC27 cells after 48 hrs by MTT assay; assay type: functional, cell-based; settings: HGC-27, 48 h

| Compound | IC50 [µM] |
| --- | --- |
| C=C1C(=O)[C@]23[C@H](O)[C@H]1CC[C@H]2[C@@]12CO[C@]3(O)[C@@H](O)[C@@H]1C(C)(C)CC[C@@H]2O [ORIDONIN] | 32 |

tested on: MGC-803; experiment: Antiproliferative activity against human MGC803 cells after 48 hrs by MTT assay; assay type: functional, cell-based; settings: MGC-803, 48 h

| IC50 [µM] | Compound |
| --- | --- |
| 4.79 | C=C1C(=O)[C@]23[C@H](O)[C@H]1C[C@H](O)[C@H]2[C@]12CCCC(C)(C)[C@H]1C[C@H]3O[C@@H]2OCCc1cn(Cc2ccc(OC)cc2)nn1 |
| 11.9 | C=C1C(=O)[C@]23[C@H](O)[C@H]1C[C@H](O)[C@H]2[C@]12CCCC(C)(C)[C@H]1C[C@H]3OC2OCCN=[N+]=[N-] (single isomer, unassigned) |
| 14.7 | C=C1C(=O)[C@]23[C@H](O)[C@H]1C[C@H](O)[C@H]2[C@]12CCCC(C)(C)[C@H]1C[C@H]3O[C@H]2O |
| 33.1 | C=C1C(=O)[C@]23[C@H](O)[C@H]1CC[C@H]2[C@@]12CO[C@]3(O)[C@@H](O)[C@@H]1C(C)(C)CC[C@@H]2O [ORIDONIN] |
